{"source": "paper PMC7179419", "about": "(Molecules, 2020)", "key": {"[1]": {"system": "human breast adenocarcinoma (MCF-7)", "assay": "cells", "type": "cell-based", "details": "for IC50: read-out: MCF-7 IC50; for SI (MCF-7): SI = IC50 BALB/3T3 / IC50 MCF-7", "protocol": "(§1) For a more accurate evaluation of cytotoxic activity, the effect on normal murine embryonic fibroblast cell line (BALB/3T3) was also tested according to the previously published procedure. Detailed information concerning antiproliferation assay can be found in Supplementary Materials. […]\n(§2) The antiproliferative activity\n(§3) Four human cancer cell lines and one murine normal cell line were used to evaluate […]\n(§4) (A549), human breast adenocarcinoma (MCF-7), human colon adenocarcinoma cell lines sensitive and resistant to doxorubicin (LoVo), respectively, and normal murine embryonic fibroblast cell line (BALB/3T3). The BALB/3T3 cell line was purchased from the American Type Culture Collection (ATCC, Manassas, VA, USA), A549 and MCF-7 cell lines—from European Collection of Authenticated Cell Cultures (Salisbury, UK), LoVo cell line was purchased from the ATCC (ATCC, Manassas, VA, USA). All the cell lines are maintained in the Institute of Immunology and Experimental Therapy (IIET), Wroclaw, Poland. Human lung adenocarcinoma cell line was cultured in mixture of OptiMEM and RPMI 1640 (1:1) medium (IIET, Wroclaw, Poland), supplemented with 5% fetal bovine serum (GE Healthcare, Logan, UT, USA) and 2 mM L-glutamine (Sigma-Aldrich, Merck KGaA, Saint Louis, MO, USA). Human breast adenocarcinoma cell line was cultured in mixture of Eagle medium (IIET, Wroclaw, Poland), supplemented with 10% fetal bovine serum, 2 mM L-glutamine, 8 μg/mL insulin and 1% amino-acids (Sigma-Aldrich, Merck KGaA, Saint Louis, MO, USA).\n(§5) Human colon adenocarcinoma cell lines were cultured in mixture of OptiMEM and RPMI 1640 (1:1) medium (IIET, Wroclaw, Poland), supplemented with 5% fetal bovine serum (GE Healthcare, Logan UT, USA), 2 mM L-glutamine, 1 mM sodium pyruvate (Sigma-Aldrich, Merck KGaA, Saint Louis, MO, USA). Murine embryonic fibroblast cells were cultured in […]\n(§6) Dulbecco medium (Life Technologies Limited, Paisley, UK), supplemented with 10% fetal bovine serum (GE Healthcare, Logan, UT, USA) and 2 mM glutamine (Sigma-Aldrich, Merck KGaA, Saint Louis, MO, USA). All culture media contained antibiotics: 100 U/mL penicillin and 100 μg/mL streptomycin (Polfa-Tarchomin, Warsaw, Poland). All cell lines were cultured during entire experiment in humid atmosphere at 37 °C and 5% CO2. Cells were tested for mycoplasma contamination by mycoplasma detection kit for conventional […]\n(§7) The procedure is repeated every year or in the case of less frequently used lines:\n(§8) The Antiproliferative Assays In Vitro\n(§9) Twenty-four hours before adding the tested compounds, all cell lines were seeded in 384-well plates (Sarstedt, Nümbrecht, Germany) in appropriate media with 1x103 or 1,5x103"}, "[2]": {"system": "human colon adenocarcinoma cell line (LoVo)", "assay": "cells", "type": "cell-based", "details": "for IC50: LoVo, 72 h, read-out: LoVo IC50; for SI (LoVo): SI = IC50 BALB/3T3 / IC50 LoVo", "protocol": "as §1, §2, §3, §4, §5, §6, §7, §8, §9"}, "[3]": {"system": "human lung adenocarcinoma (A549)", "assay": "cells", "type": "cell-based", "details": "for IC50: A549, 72 h, read-out: A549 IC50; for SI (A549): SI = IC50 BALB/3T3 / IC50 A549", "protocol": "as §1, §2, §3, §4, §5, §6, §7, §8, §9"}, "[4]": {"system": "normal murine embryonic fibroblast cell line (BALB/3T3)", "assay": "Antiproliferative assay in vitro (SRB, 72 h), BALB/3T3 normal cells", "type": "cell-based", "details": "normal cell line BALB/3T3, 72 h, mean ± SD", "protocol": "as §1, §2, §3, §4, §5, §6, §7, §8, §9"}, "tubulin": {"system": "tubulin", "design": "method as in PMID 2708333", "details": "lower affinity relative to colchicine; cited from earlier work"}}, "note": "Like-named read-outs stand apart in the source and are kept apart here."}
{"molecule": "COc1cc2c(c(OC)c1OC)-c1ccc(OC(C)=O)c(=O)cc1[C@@H](NC(C)=O)CC2", "note": "[Compound 2a, Acetyl Ester of Colchiceine]", "values": [{"measurement": "melting point", "result": "120 to 122", "unit": "°C"}]}
{"molecule": "COc1cc2c(c(OC)c1OC)-c1ccc(=O)c(O)cc1[C@@H](NC(C)=O)CC2", "note": "[Compound 1, 10-demethylcolchicine]", "values": [{"measurement": "IC50", "setting": "[1]; Homo sapiens, MCF7, 72 h", "result": "11200 ± 2520", "unit": "nM"}, {"measurement": "SI (MCF-7)", "setting": "[1]", "result": 0.91}, {"measurement": "IC50", "setting": "[2]; Homo sapiens", "result": "6000 ± 1880", "unit": "nM"}, {"measurement": "SI (LoVo)", "setting": "[2]", "result": 1.71}, {"measurement": "IC50", "setting": "[3]; Homo sapiens", "result": "13000 ± 1790", "unit": "nM"}, {"measurement": "SI (A549)", "setting": "[3]", "result": 0.79}, {"measurement": "IC50", "setting": "[4]; Mus musculus", "result": "10200 ± 960", "unit": "nM"}]}
{"molecule": "N.N.[Cl][Pt][Cl]", "note": "[cisplatin, reference compound]", "values": [{"measurement": "IC50", "setting": "[1]; MCF-7, 72 h, SRB, mean ± SD", "result": "3050 ± 670", "unit": "nM"}, {"measurement": "SI (MCF-7)", "setting": "[1]", "result": 0.95}, {"measurement": "IC50", "setting": "[2]; SRB, mean ± SD", "result": "3800 ± 280", "unit": "nM"}, {"measurement": "SI (LoVo)", "setting": "[2]", "result": 0.77}, {"measurement": "IC50", "setting": "[3]; SRB, mean ± SD", "result": "3600 ± 250", "unit": "nM"}, {"measurement": "SI (A549)", "setting": "[3]", "result": 0.81}, {"measurement": "IC50", "setting": "[4]", "result": "2910 ± 1830", "unit": "nM"}]}
{"molecule": "COc1cc2c(c(OC(=O)c3ccccc3)c1OC)-c1ccc(SC)c(=O)cc1[C@@H](NC(C)=O)CC2", "note": "[Compound 4d, Benzyl Ester of 1-demethylthiocolchicine]", "values": [{"measurement": "IC50", "setting": "[1]; Homo sapiens, MCF7, 72 h", "result": "780 ± 220", "unit": "nM"}, {"measurement": "SI (MCF-7)", "setting": "[1]", "result": 0.58}, {"measurement": "IC50", "setting": "[2]; Homo sapiens", "result": "100 ± 80", "unit": "nM"}, {"measurement": "SI (LoVo)", "setting": "[2]", "result": 4.71}, {"measurement": "IC50", "setting": "[3]; Homo sapiens", "result": "600 ± 310", "unit": "nM"}, {"measurement": "SI (A549)", "setting": "[3]", "result": 0.75}, {"measurement": "IC50", "setting": "[4]; Mus musculus", "result": "450 ± 230", "unit": "nM"}]}
{"molecule": "COc1cccc2c1C(=O)c1c(O)c3c(c(O)c1C2=O)C[C@@](O)(C(=O)CO)C[C@@H]3O[C@H]1C[C@H](N)[C@H](O)[C@H](C)O1", "note": "[doxorubicin, reference compound]", "values": [{"measurement": "IC50", "setting": "[1]; Homo sapiens, MCF7, MCF-7, 72 h, SRB, mean ± SD", "result": "150 ± 50", "unit": "nM"}, {"measurement": "SI (MCF-7)", "setting": "[1]", "result": 0.26}, {"measurement": "IC50", "setting": "[2]; Homo sapiens, SRB, mean ± SD", "result": "80 ± 30", "unit": "nM"}, {"measurement": "SI (LoVo)", "setting": "[2]", "result": 0.49}, {"measurement": "IC50", "setting": "[3]; Homo sapiens, SRB, mean ± SD", "result": "160 ± 30", "unit": "nM"}, {"measurement": "SI (A549)", "setting": "[3]", "result": 0.25}, {"measurement": "IC50", "setting": "[4]; Mus musculus", "result": "40 ± 30", "unit": "nM"}]}
{"molecule": "CCOC(=O)Oc1c(OC)c(OC)cc2c1-c1ccc(SC)c(=O)cc1[C@@H](NC(C)=O)CC2", "note": "[Compound 4f, Ethyl Carbonate of 1-demethylthiocolchicine]", "values": [{"measurement": "IC50", "setting": "[1]; Homo sapiens, MCF7, 72 h", "result": "950 ± 200", "unit": "nM"}, {"measurement": "SI (MCF-7)", "setting": "[1]", "result": 1.09}, {"measurement": "IC50", "setting": "[2]; Homo sapiens", "result": "790 ± 160", "unit": "nM"}, {"measurement": "SI (LoVo)", "setting": "[2]", "result": 1.31}, {"measurement": "IC50", "setting": "[3]; Homo sapiens", "result": "960 ± 130", "unit": "nM"}, {"measurement": "SI (A549)", "setting": "[3]", "result": 1.08}, {"measurement": "IC50", "setting": "[4]; Mus musculus", "result": "1030 ± 200", "unit": "nM"}]}
{"molecule": "COc1cc2c(c(OC)c1OC)-c1ccc(OC(=O)C(C)C)c(=O)cc1[C@@H](NC(C)=O)CC2", "note": "[Compound 2c, Isobutyryl Ester of Colchiceine]", "values": [{"measurement": "melting point", "result": "123 to 125", "unit": "°C"}]}
{"molecule": "COc1cc2c(c(O)c1OC)-c1ccc(SC)c(=O)cc1C(NC(C)=O)CC2", "note": "(stereo not drawn) [Compound 3, 1-demethylthiocolchicine]", "values": [{"measurement": "IC50", "setting": "[1]; Homo sapiens, MCF7, 72 h", "result": "120 ± 50", "unit": "nM"}, {"measurement": "SI (MCF-7)", "setting": "[1]", "result": 4.92}, {"measurement": "IC50", "setting": "[2]; Homo sapiens", "result": "110 ± 30", "unit": "nM"}, {"measurement": "IC50", "setting": "[3]; Homo sapiens", "result": "820 ± 20", "unit": "nM"}, {"measurement": "SI (A549)", "setting": "[3]", "result": 0.74}, {"measurement": "IC50", "setting": "[4]; Mus musculus", "result": "610 ± 140", "unit": "nM"}]}
{"molecule": "COc1cc2c(c(OC(C)=O)c1OC)-c1ccc(SC)c(=O)cc1C(NC(C)=O)CC2", "note": "(stereo not drawn) [Compound 4a, Acetyl Ester of 1-demethylthiocolchicine]", "values": [{"measurement": "IC50", "setting": "[1]; Homo sapiens, MCF7, 72 h", "result": "100 ± 20", "unit": "nM"}, {"measurement": "IC50", "setting": "[2]; Homo sapiens", "result": "110 ± 20", "unit": "nM"}, {"measurement": "IC50", "setting": "[3]; Homo sapiens", "result": "480 ± 150", "unit": "nM"}, {"measurement": "SI (A549)", "setting": "[3]", "result": 1.36}, {"measurement": "IC50", "setting": "[4]; Mus musculus", "result": "650 ± 120", "unit": "nM"}]}
{"molecule": "CCC(=O)Oc1c(OC)c(OC)cc2c1-c1ccc(SC)c(=O)cc1[C@@H](NC(C)=O)CC2", "note": "[Compound 4b, Propionyl Ester of 1-demethylthiocolchicine]", "values": [{"measurement": "IC50", "setting": "[1]; Homo sapiens, MCF7, 72 h", "result": "960 ± 130", "unit": "nM"}, {"measurement": "IC50", "setting": "[3]; Homo sapiens", "result": "970 ± 40", "unit": "nM"}, {"measurement": "IC50", "setting": "[4]; Mus musculus", "result": "750 ± 100", "unit": "nM"}]}
{"molecule": "COc1cc2c(c(OC(=O)C(C)C)c1OC)-c1ccc(SC)c(=O)cc1[C@@H](NC(C)=O)CC2", "note": "[Compound 4c, Isobutyryl Ester of 1-demethylthiocolchicine]", "values": [{"measurement": "IC50", "setting": "[1]; Homo sapiens, MCF7, 72 h", "result": "860 ± 100", "unit": "nM"}, {"measurement": "SI (MCF-7)", "setting": "[1]", "result": 0.83}, {"measurement": "IC50", "setting": "[2]; Homo sapiens", "result": "560 ± 60", "unit": "nM"}, {"measurement": "SI (LoVo)", "setting": "[2]", "result": 1.27}, {"measurement": "IC50", "setting": "[3]; Homo sapiens", "result": "890 ± 70", "unit": "nM"}, {"measurement": "SI (A549)", "setting": "[3]", "result": 0.80}, {"measurement": "IC50", "setting": "[4]; Mus musculus", "result": "710 ± 30", "unit": "nM"}]}
{"molecule": "COc1cc2c(c(OC)c1OC)-c1ccc(=O)c(OC)cc1[C@@H](NC(C)=O)CC2", "note": "[isocolchicine]", "values": [{"measurement": "affinity for binding to tubulin, times lower than colchicine", "setting": "tubulin", "result": 500, "unit": "times"}]}
{"molecule": "COC(=O)Oc1c(OC)c(OC)cc2c1-c1ccc(SC)c(=O)cc1C(NC(C)=O)CC2", "note": "(stereo not drawn) [Compound 4e, Methyl Carbonate of 1-demethylthiocolchicine]", "values": [{"measurement": "IC50", "setting": "[1]; Homo sapiens, MCF7, 72 h", "result": "1020 ± 100", "unit": "nM"}, {"measurement": "SI (MCF-7)", "setting": "[1]", "result": 0.77}, {"measurement": "IC50", "setting": "[2]; Homo sapiens", "result": "430 ± 190", "unit": "nM"}, {"measurement": "SI (LoVo)", "setting": "[2]", "result": 1.84}, {"measurement": "IC50", "setting": "[3]; Homo sapiens", "result": "900 ± 90", "unit": "nM"}, {"measurement": "SI (A549)", "setting": "[3]", "result": 0.87}, {"measurement": "IC50", "setting": "[4]; Mus musculus", "result": "780 ± 60", "unit": "nM"}]}
